The results in this text go back to patent US20170334899A1, “AMINO-SUBSTITUTED ISOTHIAZOLES” (Bayer Pharma Aktiengesellschaft, priority 2014, published 2017).

The structures appear in SMILES notation.

What all share (format): cell-based
For test [1], the system named is B16F10. Description: Proliferation assay (crystal violet), B16F10. The conditions noted are these: Mus musculus, B16-F10, 96 h; B16F10 cells; 4 days incubation; crystal violet staining; read-out: IC50 inhibition of proliferation, B16F10. The procedure: (§1) Cultivated tumor cells (cells were ordered from ATCC, except HeLa-MaTu and HeLa-MaTu-ADR, which were ordered from EPO-GmbH, Berlin) were plated at a density of 1000 to 5000 cells/well, depending on the growth rate of the respective cell line, in a 96-well multititer plate in 200 μL of their respective growth medium supplemented 10% fetal calf serum. After 24 hours, the cells of one plate (zero-point plate) were stained with crystal violet (see below), while the medium of the other plates was replaced by fresh culture medium (200 μl), to which the test substances were added in various concentrations (0 μM, as well as in the range of 0.001-10 μM; the final concentration of the solvent dimethyl sulfoxide was 0.5%). The cells were incubated for 4 days in the presence of test substances. Cell proliferation was determined by staining the cells with crystal violet: the cells were fixed by adding 20 μl/measuring point of an 11% glutaric aldehyde solution for 15 minutes at room temperature. After three washing cycles of the fixed cells with water, the plates were dried at room temperature. The cells were stained by adding 100 μl/measuring point of a 0.1% crystal violet solution (pH 3.0). After three washing cycles of the stained cells with water, the plates were dried at room temperature. The dye was dissolved by adding 100 μl/measuring point of a 10% acetic acid solution. Absorbtion was determined by photometry at a wavelength of 595 nm. The change of cell number, in percent, was calculated by normalization of the measured values to the aborbtion values of the zero-point plate (=0%) and the absorbtion of the untreated (0 μm) cells (=100%). The IC50 values were determined by means of a 4 parameter fit.

Test [2] relates to HeLa-MaTu-ADR. Description: Proliferation assay (crystal violet), HeLa-MaTu-ADR. The conditions noted are these: 96 h; HeLa-MaTu-ADR cells; 4 days incubation; crystal violet staining; read-out: IC50 inhibition of proliferation, HeLa-MaTu-ADR. The procedure:
as §1

Test [3] concerns DU145. Description: Proliferation assay (crystal violet), DU145. The conditions noted are these: Homo sapiens, DU-145, 96 h; DU145 cells; 4 days incubation; crystal violet staining; read-out: IC50 inhibition of proliferation, DU145. The protocol: as §1
Test [4] concerns NCI-H460. Description: Proliferation assay (crystal violet), NCI-H460. The conditions noted are these: Homo sapiens, 96 h; NCI-H460 cells; 4 days incubation; crystal violet staining; read-out: IC50 inhibition of proliferation, NCI-H460. The procedure:
as §1

Test [5] deals with Caco-2. Description: Proliferation assay (crystal violet), Caco-2. The conditions noted are these: Homo sapiens, 96 h; Caco-2 cells; 4 days incubation; crystal violet staining; read-out: IC50 inhibition of proliferation, Caco2. The procedure:
as §1

The test system of test [6] is human cervical tumor cell line HeLa (ATCC CCL-2). Description: SAC-Formation - Nocodazole-Induced Assay. The conditions noted are these: Homo sapiens, HeLa, 24 h, HeLa cells, nocodazole 0.1 μg/ml together with test compound, decrease of mitotic cells (phospho-histone H3 Ser10). A digest of the protocol: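 Loss of phospho-histone H3 Ser10-positive cells, counted against Hoechst-stained nuclei by high-content imaging, marked mitotic breakthrough. Compounds (0.005–20 μM, 0.5% DMSO) were co-dosed with 0.1 μg/ml nocodazole onto HeLa cells for 24 h at 37 °C. Curves were fitted with a four-parameter Hill equation.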

For `Cc1nsc(Nc2cnc3ccccc3n2)c1C(=O)Nc1ccc(OC2CCN(C(=O)OC(C)(C)C)CC2)nc1` [Example 18, tert-Butyl 4-{[5-({[3-methyl-5-(quinoxalin-2-ylamino)-1,2-thiazol-4-yl]carbonyl}-amino)pyridin-2-yl]oxy}piperidine-1-carboxylate], the IC50 in test [1] was 550 nM; in test [2] it was 380 nM; in test [3], 910 nM; in test [4] it was 640 nM; in test [5] it was 270 nM; in test [6], 44 nM.

For `Cc1nsc(Nc2cncc(C(F)(F)F)n2)c1C(=O)Nc1ccc(OC2CCN(CC(F)(F)F)CC2)nc1` [Example 16, 3-Methyl-N-(6-{[1-(2,2,2-trifluoroethyl)piperidin-4-yl]oxy}pyridin-3-yl)-5-{[6-(trifluoromethyl)pyrazin-2-yl]amino}-1,2-thiazole-4-carboxamide], the IC50 came out at 290 nM in test [1]; 290 nM in test [2]; 720 nM in test [3]; 150 nM in test [4]; 240 nM in test [5]; 41 nM in test [6].

As to `Cc1nsc(Nc2cncc(C(F)(F)F)n2)c1C(=O)Nc1ccc(OCCNC(=O)OC(C)(C)C)nc1` [Example 191, tert-butyl {2-[(5-{[(3-methyl-5-{[6-(trifluoromethyl)pyrazin-2-yl]amino}-1,2-thiazol-4-yl)carbonyl]amino}pyridin-2-yl)oxy]ethyl}carbamate], in test [6], the IC50 worked out at 59 nM.

For `Cc1nsc(Nc2cncc(C(F)(F)F)n2)c1C(=O)Nc1ccc(OC2CCCN(C(=O)OC(C)(C)C)C2)nc1` (stereo not shown) [Example 189, tert-butyl 3-[(5-{[(3-methyl-5-{[6-(trifluoromethyl)pyrazin-2-yl]amino}-1,2-thiazol-4-yl)carbonyl]amino}pyridin-2-yl)oxy]piperidine-1-carboxylate], the IC50 in test [6] came out at 150 nM.

For `Cc1nsc(Nc2cnc(C(F)(F)F)cn2)c1C(=O)Nc1ccc(C(=O)NCCN2CCCC(F)C2)cc1` (stereo not shown) [Example 213, N-(4-{[2-(3-fluoropiperidin-1-yl)ethyl]carbamoyl}phenyl)-3-methyl-5-{[5-(trifluoromethyl)pyrazin-2-yl]amino}-1,2-thiazole-4-carboxamide], the IC50 in test [6] was found to be 2700 nM.

For `Cc1nsc(Nc2cnc3ccccc3n2)c1C(=O)Nc1ccc(Oc2ccc(SC(F)(F)F)cc2)nc1` [Example 233, 3-methyl-5-(quinoxalin-2-ylamino)-N-(6-{4-[(trifluoromethyl)sulfanyl]phenoxy}pyridin-3-yl)-1,2-thiazole-4-carboxamide], in test [6], the IC50 amounted to 4700 nM.
